According to ChEMBL document CHEMBL3813664, “Synthesis and evaluation of biphenyl derivatives as potential downregulators of VEGF protein secretion and telomerase-related gene expressions” (Bioorg Med Chem, 2016):
Converted amounts (≈) assume the structure as drawn.

Columns and labels:
[1] = test system: HT-29; assay: Downregulation of c-Myc gene expression in human HT-29 cells assessed as gene expression levels at 3 ug/ml after 48 hrs by RT-qPCR analysis relative to control; format: functional
[2] = Therapeutic index, ratio of IC50 for HEK293 cells to IC50 for human HT-29 cells; format: cell-based; settings: HEK293 cells versus HT-29 cells, read-out: Ratio IC50
[3] = test system: HEK293; assay: Cytotoxicity against HEK293 cells assessed as reduction in cell growth after 3 days by MTT assay; format: cell-based; settings: Homo sapiens, HEK293, 72 h
[4] = test system: HT-29; assay: Cytotoxicity against human HT-29 cells assessed as reduction in cell growth after 3 days by MTT assay; format: functional, cell-based; settings: HT-29, 72 h
[5] = test system: HT-29; assay: Downregulation of VEGFA gene expression in human HT-29 cells assessed as gene expression levels at 3 ug/ml after 48 hrs by RT-qPCR analysis relative to control; format: functional
[6] = test system: HT-29; assay: Downregulation of VEGFA-165 secretion in human HT-29 cells assessed as protein secretion levels at 3 ug/ml after 72 hrs by ELISA relative to control; format: functional
[7] = test system: HT-29; assay: Downregulation of TERT gene expression in human HT-29 cells assessed as gene expression levels at 3 ug/ml after 48 hrs by RT-qPCR analysis relative to control; format: functional
[8] = Therapeutic index, ratio of IC50 for HEK293 cells to IC50 for human MCF7 cells; format: cell-based; settings: HEK293 cells versus MCF7 cells, read-out: Ratio IC50
[9] = test system: MCF7; assay: Cytotoxicity against human MCF7 cells assessed as reduction in cell growth after 3 days by MTT assay; format: functional, cell-based; settings: MCF7, 72 h
[10] = test system: HT-29; assay: Downregulation of VEGFA gene expression in human HT-29 cells assessed as gene expression levels at 15 ug/ml after 48 hrs by RT-qPCR analysis relative to control; format: functional
[11] = test system: HT-29; assay: Downregulation of VEGFA-165 secretion in human HT-29 cells assessed as protein secretion levels at 15 ug/ml after 72 hrs by ELISA relative to control; format: functional
[12] = test system: HT-29; assay: Downregulation of c-Myc gene expression in human HT-29 cells assessed as gene expression levels at 15 ug/ml after 48 hrs by RT-qPCR analysis relative to control; format: functional
[13] = test system: HT-29; assay: Downregulation of TERT gene expression in human HT-29 cells assessed as gene expression levels at 15 ug/ml after 48 hrs by RT-qPCR analysis relative to control; format: functional
[14] = test system: HT-29; assay: Downregulation of TERT gene expression in human HT-29 cells assessed as gene expression levels at 5 ug/ml after 48 hrs by RT-qPCR analysis relative to control; format: functional
[15] = test system: HT-29; assay: Downregulation of c-Myc gene expression in human HT-29 cells assessed as gene expression levels at 5 ug/ml after 48 hrs by RT-qPCR analysis relative to control; format: functional
[16] = test system: HT-29; assay: Downregulation of VEGFA-165 secretion in human HT-29 cells assessed as protein secretion levels at 5 ug/ml after 72 hrs by ELISA relative to control; format: functional
[17] = test system: HT-29; assay: Downregulation of VEGFA gene expression in human HT-29 cells assessed as gene expression levels at 5 ug/ml after 48 hrs by RT-qPCR analysis relative to control; format: functional
[18] = test system: HT-29; assay: Downregulation of VEGFA gene expression in human HT-29 cells assessed as gene expression levels at 30 ug/ml after 48 hrs by RT-qPCR analysis relative to control; format: functional
[19] = test system: HT-29; assay: Downregulation of VEGFA-165 secretion in human HT-29 cells assessed as protein secretion levels at 30 ug/ml after 72 hrs by ELISA relative to control; format: functional
[20] = test system: HT-29; assay: Downregulation of c-Myc gene expression in human HT-29 cells assessed as gene expression levels at 30 ug/ml after 48 hrs by RT-qPCR analysis relative to control; format: functional
[21] = test system: HT-29; assay: Downregulation of TERT gene expression in human HT-29 cells assessed as gene expression levels at 30 ug/ml after 48 hrs by RT-qPCR analysis relative to control; format: functional

SMILES | Activity [1] | selectivity ratio [2] | IC50 [3] | IC50 [4] | Activity [5] | Activity [6] | Activity [7] | selectivity ratio [8] | IC50 [9] | other results
Oc1ccccc1-c1ccccc1O | 18% | 23 | 57 µg/mL (≈ 306 µM) | 2.5 µg/mL (≈ 13.4 µM) | 23% | 57% | 3% | 1 | 60 µg/mL (≈ 322 µM) | –
COc1cccc(-c2ccc(O)cc2)c1 | – | 1.5 | 35 µg/mL (≈ 175 µM) | 24 µg/mL (≈ 120 µM) | – | – | – | 0.9 | 41 µg/mL (≈ 205 µM) | Activity [10]: 51%; Activity [11]: 48%; Activity [12]: 34%; Activity [13]: 35%
Oc1cccc(-c2cccc(O)c2)c1 | 16% | 28 | 68 µg/mL (≈ 365 µM) | 2.5 µg/mL (≈ 13.4 µM) | 5% | 50% | 29% | 1.3 | 51.6 µg/mL (≈ 277 µM) | –
C=CCc1ccc(O)c(-c2ccc(O)c(CC=C)c2)c1 [HONOKIOL] | – | 1.5 | 9.3 µg/mL (≈ 34.9 µM) | – | – | – | – | 1.9 | 5 µg/mL (≈ 18.8 µM) | Activity [14]: 45%; Activity [15]: 45%; Activity [16]: 55%; Activity [17]: 36%
COc1ccccc1-c1ccccc1O | 6% | 20 | 54 µg/mL (≈ 270 µM) | 2.7 µg/mL (≈ 13.5 µM) | 17% | 33% | 3% | < 0.5 | > 100 µg/mL | –
COc1ccc(-c2ccc(N)cc2)c(OC)c1 | 39% | 10 | 22 µg/mL (≈ 96 µM) | 2.2 µg/mL (≈ 9.6 µM) | 41% | 51% | 40% | < 0.2 | > 100 µg/mL | –
COc1ccc(-c2ccc(O)cc2)c(OC)c1 | – | > 5 | > 100 µg/mL | 21 µg/mL (≈ 91.2 µM) | – | – | – | > 2 | 47 µg/mL (≈ 204 µM) | Activity [10]: 37%; Activity [11]: 35%; Activity [12]: 87%; Activity [13]: 56%
COc1ccc(-c2cccc(O)c2)cc1 | – | 0.2 | 14.6 µg/mL (≈ 72.9 µM) | 72 µg/mL (≈ 360 µM) | – | – | – | 0.3 | 48 µg/mL (≈ 240 µM) | –
Nc1ccc(-c2cccc(O)c2)cc1 | – | 1.1 | 55 µg/mL (≈ 297 µM) | 49.3 µg/mL (≈ 266 µM) | – | – | – | < 0.6 | > 100 µg/mL | –
Oc1ccc(-c2cccc(O)c2)cc1 | 39% | 9 | 31 µg/mL (≈ 166 µM) | 3.4 µg/mL (≈ 18.3 µM) | 35% | 52% | 30% | 9 | > 100 µg/mL | –
COc1ccc(-c2ccccc2O)c(OC)c1 | – | > 3 | > 100 µg/mL | 33.7 µg/mL (≈ 146 µM) | – | – | – | – | > 100 µg/mL | Activity [18]: 56%; Activity [19]: 29%; Activity [20]: 54%; Activity [21]: 29%
Oc1cccc(-c2ccccc2O)c1 | 87% | > 19 | > 100 µg/mL | 5.2 µg/mL (≈ 27.9 µM) | 10% | 57% | 18% | – | > 100 µg/mL | –
